According to article PMC7232676, “Fragment-Based Design of Mycobacterium tuberculosis InhA Inhibitors” (Journal of Medicinal Chemistry, 2020):
Like-named read-outs stand apart in the source and are kept apart here.

Tests used:
InhA [1] = molecular target: T1, InhA (Mycobacterium tuberculosis, UniProt P9WGR1); test: InhA enzymatic assay (NADH oxidation at 340 nm, 2-trans-octanoyl-CoA substrate); assay type: biochemical; settings: for LE (ligand efficiency): LE = (1.37 × pIC50)/HA; for IC50: average of three experiments
Description: The identified fragment hits were further evaluated by an InhA enzymatic assay using 2-trans-octanoyl-CoA as a substrate.[22]
The carboxylic acid in fragment 1 (P1) was replaced by an isosteric sulfonamide as a linker to synthesize compound 6 (Figure 2b). Docking experiments with Glide XP[23] […] All the synthesized compounds were tested at a concentration of 100 μM using the InhA enzymatic assay.
InhA activity was followed by a colorimetric assay that measured the oxidation of NADH at 340 nm in the presence of 2-trans-octanoyl-CoA as described before in a buffer that contained 30 mM PIPES, pH 7.5, 50 mM NaCl, 0.1 mM EDTA, and 100 nM InhA.[26] This was preincubated for 10 min at room temperature with 0.25 mM NADH and varying concentrations of the compounds with 1% (v/v) DMSO in a 150 μL reaction volume. The reaction was started by the addition of 2-trans-octanoyl-CoA at a final concentration of 1.5 mM, prepared as described previously.[22] Reactions were followed for 20 min using a plate reader (CLARIOstar, BMG LABTECH).

InhA [2] = molecular target: T1, InhA; test: Differential scanning fluorimetry (fluorescence-based thermal-shift assay); assay type: binding; settings: for ΔTm (thermal shift of InhA): fragments 5 mM, InhA 10 μM, NAD+ 1 mM
Description: Differential scanning fluorimetry (DSF) was used to screen an in-house library of 800 rule-of-three-compliant fragments. A saturating concentration of the cofactor in oxidized form (1 mM NAD^+) was used in all the experiments to ensure that the cofactor binding site would be occupied by NAD^+ and that fragments would not bind there. […] Upon screening of the fragment library, a hit was defined where the melting point was increased by at least +3 °C at a concentration of 5 mM (Figure 1a).
The substrate binding regions of InhA are divided into three sites: site I, site II, and site III.
Differential scanning fluorimetry was used to screen a library of 800 fragments. The assay was performed in a 96 well plate format using a CFX Connect (Bio-Rad). Each well contained a solution of 10 μM InhA, 1 mM NAD^+, HEPES (50 mM), NaCl (150 mM), pH 7.5, 5× Sypro Orange, 5% DMSO, and fragments at 5 mM. […] Controls were made in quadruplicates for all the experiments.

M. tuberculosis H37Ra = test: Growth inhibition of M. tuberculosis H37Ra, 48 h cultivation; assay type: cell-based, Mycobacterium tuberculosis; settings: for inhibition at 200 µM: 200 μM compound in the media, 48 h cultivation
Description: (§1) Further analysis of the effect on the synthesis of mycolic acids by metabolic labeling[24],[25] of the model strain M. tuberculosis H37Ra with ^14C acetate was also explored. A 48 h cultivation in the presence of 200 μM of the compounds in the media led to 84% growth inhibition for compound 19; 40% and 33% growth inhibition for compounds 14 and 23, respectively; 38% growth inhibition for compound 24 and isoniazid; 23% growth inhibition for compounds 25 and 26.
The culture of M. tuberculosis H37Ra was grown statically at 37 °C in Middlebrook 7H9 broth (Difco) supplemented with albumin–dextrose–catalase and 0.05% Tween 80. When the culture reached the OD600nm value of 0.290, it was divided into 10 mL aliquots and tested compounds dissolved in DMSO were added at 200 μM final concentrations, while isoniazid that served as a control inhibitor was at 40 μM. The final concentration of DMSO in each culture was at 1%. After 24 h of cultivation with shaking (120 rpm) in the presence of tested inhibitors, ^14C acetate (specific activity of 106 mCi/mmol) was added at a final concentration of 0.5 μCi/mL and the cells were cultivated for the next 24 h.

[3] = test system: synthesis of mycolic acids in M. tuberculosis H37Ra; test: Metabolic labeling with 14C acetate, TLC of FAME/MAME (mycolic acid synthesis); assay type: cell-based, Mycobacterium tuberculosis; settings: isoniazid control at 40 μM, 14C acetate labeling
Description: as §1
Figure 5 (A) TLC of the metabolic labeling experiments of M. tuberculosis H37Ra with ^14C acetate treated with the compounds 14, 19, and 23–26 for the analysis of mycolic acid inhibition. Fatty acid methyl esters, FAME; mycolic acid methyl esters, MAME; isoniazid, INH. (B) TLC of the metabolic labeling experiments of M. tuberculosis H37Ra with ^14C acetate treated with the compounds 14, 19, and 23–26 for the analysis of the lipid inhibition. Trehalose monomycolates, TMM; trehalose dimycolates, TDM; phosphatidylethanolamine, PE; cardiolipin, CL; isoniazid, INH.
The culture of M. tuberculosis H37Ra was grown statically at 37 °C in Middlebrook 7H9 broth (Difco) supplemented with albumin–dextrose–catalase and 0.05% Tween 80. […]
Fatty acid methyl esters (FAMEs) and mycolic acids methyl esters (MAMEs) were prepared from whole cells harvested from 4 mL culture aliquots as previously described.[32] […] 3× and detected by autoradiography.

[4] = 100 μM compound, read-out: Inh % (inhibition percentage of InhA)
[5] = supplementary CSV, read-out: % inhibition
[6] = Mycobacterium tuberculosis, H37RA

T1 sequence (P9WGR1 whole entry, looked up, the tested form may be a part): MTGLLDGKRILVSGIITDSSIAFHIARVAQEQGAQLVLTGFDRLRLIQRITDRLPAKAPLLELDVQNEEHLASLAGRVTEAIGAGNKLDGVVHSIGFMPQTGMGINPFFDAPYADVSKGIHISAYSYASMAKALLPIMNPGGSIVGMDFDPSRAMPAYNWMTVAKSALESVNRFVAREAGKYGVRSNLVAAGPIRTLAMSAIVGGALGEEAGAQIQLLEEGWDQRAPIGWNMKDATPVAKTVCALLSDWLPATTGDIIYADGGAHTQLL

With `O=C(O)/C=C/c1cccc(C(F)(F)F)c1` [compound 1, (E)-3-(3-(trifluoromethyl)phenyl)acrylic acid] the “Inhibition of InhA” value (InhA [1]; 2 mM fragment, triplicate) was 0% and the DTm (InhA [2]) was 3.2 oC.

For `O=C(O)c1ccccc1C(=O)c1ccc(Cl)c([N+](=O)[O-])c1` [compound 2, 2-(4-chloro-3-nitrobenzoyl)benzoic acid], the DTm (InhA [2]) was 4.2 oC and the “ΔTm (thermal shift of InhA)” value (InhA [2]) was “+4.2 °C”.

`O=C(O)c1cc2ccccc2cc1O` [compound 3, 3-hydroxy-2-naphthoic acid] was tested, and the DTm (InhA [2]) was 4.2 oC and the “ΔTm (thermal shift of InhA)” value (InhA [2]) was “+4.2 °C”.

For `O=C(O)CCc1cccc(Cl)c1` [compound 4, 3-(3-chlorophenyl)propanoic acid], the DTm (InhA [2]) was 3 oC and the “ΔTm (thermal shift of InhA)” value (InhA [2]) was “+3.0 °C”.

With `O=C(O)c1ccccc1-n1cccn1` [compound 5, 2-(1H-pyrazol-1-yl)benzoic acid] the DTm (InhA [2]) was 6 oC and the “ΔTm (thermal shift of InhA)” value (InhA [2]) was “+6.0 °C”.

`O=S(=O)(/C=C/c1cccc(C(F)(F)F)c1)Nc1ccccc1` [compound 6, (E)-N-Phenyl-2-(3-(trifluoromethyl)phenyl)ethene-1-sulfonamide] was tested, and the inhibition at 100 µM (InhA [1]; [4]) was 54% and the inhibition at 100 µM (InhA [1]; [5]) was 54%.

`O=S(=O)(/C=C/c1cccc(C(F)(F)F)c1)NC1CCNCC1` [compound 7, (E)-N-(Piperidin-4-yl)-2-(3-(trifluoromethyl)phenyl)ethene-1-sulfonamide] was tested, and the inhibition at 100 µM (InhA [1]; [4]) was 15% and the inhibition at 100 µM (InhA [1]; [5]) was 15%.

`O=S(=O)(/C=C/c1cccc(C(F)(F)F)c1)Nc1cccnc1` [compound 8, (E)-N-(Pyridin-3-yl)-2-(3-(trifluoromethyl)phenyl)ethene-1-sulfonamide] gave an inhibition at 100 µM (InhA [1]; [4]) of 17% and an inhibition at 100 µM (InhA [1]; [5]) of 17%.

`COC(=O)c1ccc(NS(=O)(=O)/C=C/c2cccc(C(F)(F)F)c2)cc1` [compound 9, Methyl-(E)-4-((2-(3-(trifluoromethyl)phenyl)vinyl)sulfonamido)benzoate] gave an inhibition at 100 µM (InhA [1]; [4]) of 0% and an inhibition at 100 µM (InhA [1]; [5]) of 0%.

In the case of `CC(C)(C)OC(=O)Nc1ccc(NS(=O)(=O)/C=C/c2cccc(C(F)(F)F)c2)cc1` [compound 10, tert-Butyl-(E)-(4-((2-(3-(trifluoromethyl)phenyl)vinyl)sulfonamido)phenyl)carbamate], the inhibition at 100 µM (InhA [1]; [4]) is reported as 11% and the inhibition at 100 µM (InhA [1]; [5]) is reported as 11%.

For `Nc1ccc(NS(=O)(=O)/C=C/c2cccc(C(F)(F)F)c2)cc1` [compound 11, (E)-N-(4-Aminophenyl)-2-(3-(trifluoromethyl)phenyl)ethene-1-sulfonamide], the inhibition at 100 µM (InhA [1]; [4]) was 6% and the inhibition at 100 µM (InhA [1]; [5]) was 6%.

Work on `COc1ccc(NS(=O)(=O)/C=C/c2cccc(C(F)(F)F)c2)cc1` [compound 12, (E)-N-(4-Methoxyphenyl)-2-(3-(trifluoromethyl)phenyl)ethene-1-sulfonamide] yielded an inhibition at 100 µM (InhA [1]; [4]) of 15% and an inhibition at 100 µM (InhA [1]; [5]) of 15%.

In the case of `COC(=O)Cc1ccc(NS(=O)(=O)/C=C/c2cccc(C(F)(F)F)c2)cc1` [compound 13, Methyl-(E)-2-(4-((2-(3-(trifluoromethyl)phenyl)vinyl)sulfonamido)phenyl)acetate], the inhibition at 100 µM (InhA [1]; [4]) is reported as 24% and the inhibition at 100 µM (InhA [1]; [5]) is reported as 24%.

With `NCc1ccc(NS(=O)(=O)/C=C/c2cccc(C(F)(F)F)c2)cc1` [compound 14, (E)-N-(4-(Aminomethyl)phenyl)-2-(3-(trifluoromethyl)phenyl)ethene-1-sulfonamide] the inhibition at 100 µM (InhA [1]; [4]) was > 90%, the “LE (ligand efficiency)” value (InhA [1]) was 0.29 and the IC50 (InhA [1]) was 9 µM. For the same compound, the “fold increase of the potency from compound 6” value (InhA [1]; compared to compound 6) was 10 fold, the inhibition at 100 µM (InhA [1]; [5]) was > 90% and the inhibition at 200 µM (M. tuberculosis H37Ra; [6]) was 40%.

`CNCc1ccc(NS(=O)(=O)/C=C/c2cccc(C(F)(F)F)c2)cc1` [compound 15, (E)-N-(4-((Methylamino)methyl)phenyl)-2-(3-(trifluoromethyl)phenyl)ethene-1-sulfonamide] showed an inhibition at 100 µM (InhA [1]; [4]) of 0% and an inhibition at 100 µM (InhA [1]; [5]) of 0%.

Work on `CC(=O)NCc1ccc(NS(=O)(=O)/C=C/c2cccc(C(F)(F)F)c2)cc1` [compound 16, (E)-N-(4-((2-(3-(Trifluoromethyl)phenyl)vinyl)sulfonamido)benzyl)acetamide] yielded an inhibition at 100 µM (InhA [1]; [4]) of 25% and an inhibition at 100 µM (InhA [1]; [5]) of 25%.

Compound `O=C(O)c1ccc(NS(=O)(=O)/C=C/c2cccc(C(F)(F)F)c2)cc1` [compound 17, (E)-4-((2-(3-(Trifluoromethyl)phenyl)vinyl)sulfonamido)benzoic Acid] has an inhibition at 100 µM (InhA [1]; [4]) of 0% and an inhibition at 100 µM (InhA [1]; [5]) of 0%.

Compound `O=S(=O)(/C=C/c1cccc(C(F)(F)F)c1)Nc1ccc2c(c1)CNCC2` [compound 20, (E)-N-(1,2,3,4-Tetrahydroisoquinolin-7-yl)-2-(3-(trifluoromethyl)phenyl)ethene-1-sulfonamide] has an inhibition at 100 µM (InhA [1]; [4]) of 0% and an inhibition at 100 µM (InhA [1]; [5]) of 0%.

For `CC(C)(C)c1ccc(S(=O)(=O)Nc2cccc(CN)c2)cc1` [compound 21, N-(3-(Aminomethyl)phenyl)-4-(tert-butyl)benzenesulfonamide], the inhibition at 100 µM (InhA [1]; [4]) was 40% and the inhibition at 100 µM (InhA [1]; [5]) was 40%.

For `NCc1cccc(NS(=O)(=O)CCc2cccc3ccccc23)c1` [compound 22, N-(3-(Aminomethyl)phenyl)-2-(naphthalen-1-yl)ethane-1-sulfonamide], the inhibition at 100 µM (InhA [1]; [4]) was 17% and the inhibition at 100 µM (InhA [1]; [5]) was 17%.

In the case of `Cc1c(S(=O)(=O)Nc2cccc(CN)c2)sc2ccc(Cl)cc12` [compound 23, N-(3-(Aminomethyl)phenyl)-5-chloro-3-methylbenzo[b]thiophene-2-sulfonamide], the inhibition at 100 µM (InhA [1]; [4]) is reported as > 90%, the inhibition at 100 µM (InhA [1]; [5]) is reported as > 90% and the “activity against M. tuberculosis” value (M. tuberculosis H37Ra) is reported as “inactive”. For the same compound, the inhibition at 200 µM (M. tuberculosis H37Ra; [6]) was 33%.

For `Cc1c(S(=O)(=O)Nc2cccc(CN)c2)sc2ccc(F)cc12` [compound 24, N-(3-(Aminomethyl)phenyl)-5-fluoro-3-methylbenzo[b]thiophene-2-sulfonamide], the inhibition at 100 µM (InhA [1]; [4]) was > 90%, the “LE (ligand efficiency)” value (InhA [1]) was 0.40 and the IC50 (InhA [1]) was 0.25 µM. For the same compound, the inhibition at 100 µM (InhA [1]; [5]) was > 90% and the inhibition at 200 µM (M. tuberculosis H37Ra; [6]) was 38%.

With `NCc1cccc(NS(=O)(=O)c2cc3ccccc3s2)c1` [compound 25, N-(3-(Aminomethyl)phenyl)benzo[b]thiophene-2-sulfonamide] the inhibition at 100 µM (InhA [1]; [4]) was > 90%, the IC50 (InhA [1]) was 6 µM and the inhibition at 100 µM (InhA [1]; [5]) was > 90%. The inhibition at 200 µM (M. tuberculosis H37Ra; [6]) was 23%.

`NCc1cccc(NS(=O)(=O)c2cc3ccccc3o2)c1` [compound 26, N-(3-(Aminomethyl)phenyl)benzofuran-2-sulfonamide] gave an inhibition at 100 µM (InhA [1]; read-out: Inh % (inhibition percentage of InhA)) of 66%, an inhibition at 100 µM (InhA [1]; [5]) of 66% and an inhibition at 200 µM (M. tuberculosis H37Ra; [6]) of 23%.

In the case of `NNC(=O)c1ccncc1` [isoniazid, reference compound], the “effect on synthesis of mycolic acids” value [3] is reported as “complete abolition” and the inhibition at 40 µM (M. tuberculosis H37Ra; Mycobacterium tuberculosis, H37RA, 48 h, read-out: growth inhibition) is reported as 38%.

In the case of “(E)-4-((2-(3-(Trifluoromethyl)phenyl)vinyl)sulfonamido)benzamide [compound 18]”, the “Inh % (inhibition percentage of InhA)” value (InhA [1]; 100 μM compound) is reported as 0% and the “% inhibition” value (InhA [1]; supplementary CSV) is reported as 0%.
